Results published in PubChem BioAssay (NCI).
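Method: 48-hour compound exposure of cells in 96-well plates, five concentrations, linear interpolation of endpoints. Abbreviation: GI50, concentration required for 50% inhibition of growth. Definition used: TGI = concentration required for complete inhibition of growth.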

How the values were obtained:
Test in all cases: DTP human tumour cell line panel, 48 h
CCRF-CEM leukemia = test system: CCRF-CEM leukemia
786-0 renal = test system: 786-0 renal
UACC-257 melanoma = test system: UACC-257 melanoma
HS 578T breast = test system: HS 578T breast
MDA-MB-231 breast = test system: MDA-MB-231 breast
HOP-62 NSCLC = test system: HOP-62 NSCLC
SK-MEL-2 melanoma = test system: SK-MEL-2 melanoma
ACHN renal = test system: ACHN renal
T-47D breast = test system: T-47D breast
NCI-H226 lung = test system: NCI-H226 lung

SMILES	TGI (CCRF-CEM leukemia) [µM]	TGI (786-0 renal) [µM]	TGI (UACC-257 melanoma) [µM]	TGI (HS 578T breast) [µM]	TGI (MDA-MB-231 breast) [µM]	TGI (HOP-62 NSCLC) [µM]	TGI (SK-MEL-2 melanoma) [µM]	TGI (ACHN renal) [µM]	TGI (T-47D breast) [µM]	TGI (NCI-H226 lung) [µM]	GI50 (CCRF-CEM leukemia) [nM]	GI50 (786-0 renal) [nM]	GI50 (UACC-257 melanoma) [µM]	GI50 (HS 578T breast) [µM]	GI50 (MDA-MB-231 breast) [nM]	GI50 (HOP-62 NSCLC) [µM]	GI50 (SK-MEL-2 melanoma) [µM]	GI50 (ACHN renal) [nM]	GI50 (T-47D breast) [µM]	GI50 (NCI-H226 lung) [µM]
CNC(=O)NC(CCCCNC(=O)OCc1ccccc1)C(=O)OCc1ccccc1 (configuration not stated)	71.8	> 100	36.8	> 100	> 73.9	> 100	38.4	> 100	51.3	> 88.6										
COc1ccc(OC)c(/C=C2\COc3ccc(O)c(O)c3C2=O)c1	34.4	7.12	7.82	36.8	11.8	24.5	8.44	3.97	15.2	36.8	679	2280	2.43	5.3	2740	8.63	2.84	1840	2.64	6.76
COc1cc(C2CC(c3ccccc3)=NN2C(C)=O)cc(OC)c1OC (configuration not stated)	> 100	> 100	> 100	34.6	> 100	> 100	> 100	> 100	> 100	> 100	3090	5930	> 100	2.57	7680	5.59	4.02	5880	5.33	6.8
O=C(O)c1c[nH]c2c(OCc3ccccc3)c3ccccc3c(O)c2c1=O	34.7	43.9	24.2	70.1	> 100	31.4			73.8		10000	21700	11.8	33.2	20200	17.5			21.5	
Cc1ccc(NC2=C(Cl)C(=O)N(Cc3ccccc3)C2=O)cc1Cl	19.4	21		33.9		25.2		26.6	25.3	3.83	4230	6390		10.6		12.6		11100	4.3	0.144
Cc1ccc(-c2nc(N)c(C#N)c3c2CCOc2c-3ccc3ccccc23)cc1	1.36	12.7	> 100	1.51	0.626	7.93		> 36.1	45.9	> 100	224	363	0.474	0.227	70	0.313		847	0.954	> 100
O=C(Cc1ccccc1)NC(c1ccc(Cl)cc1)c1c(O)ccc2ccccc12 (configuration not stated)	26.7	9.76	10.4	13.8	4.73	8.57	6.83	6.9	13.8	12	3910	2870	2.77	2.81	1980	2.84	2.9	2550	3.65	3.15
O=C(NCCNc1nccc(-c2c(-c3ccc(F)cc3)nc3sccn23)n1)c1ccccc1	36.3	> 100	41.1	> 100	67.2	34.7	39.3	49.2	20.9	25	3830	15300	14.3	20.4	15200	16.9	8.75	2980	1.91	5.87
N#C/C(=C1C=C/C(=N\O)C(Cl)=C\1)c1ccccc1	2.37	11.9	28.2	38.5	6.7	13		11.6	11.3	12.4	370	745	4.49	3.58	2260	1.91		733	0.6	3.13
CS(=O)(=O)c1ccc(Oc2cc(F)cc(C#N)c2)c2c1[C@H](O)C(F)(F)C2	47.5	> 100		> 100	> 100	> 100	> 100	> 100	> 100	> 100	21900	> 100000		> 100	> 100000	> 100	> 100	> 100000	> 100	> 100
O=C1/C(=C/c2ccccc2F)CN(C(=O)C(Cl)Cl)C/C1=C\c1ccccc1F	> 100	2	3.19	5.51	1.58	2.44	3.62	1.09	3.97	6.85	106	666	1.08	0.985	404	0.906	1.6	327	0.71	1.4
Cc1sc(NC2=NC(=O)/C(=C\c3ccccc3)S2)nc1-c1nc(NC2=NC(=O)/C(=C\c3ccccc3)S2)sc1C	35.6	33.4	> 38.7	> 50	27	22.9	> 50	> 32.6	> 50	> 32.8	9410	11400	13.7	3.13	10200	8.71	> 35.1	12400	28.2	12.4
C=C(C)[C@@H]1CC[C@]2(C(=O)O)CC[C@]3(C)[C@H](CC[C@@H]4[C@@]5(C)C/C(=C/c6ccc(OC)cc6)C(=O)C(C)(C)[C@@H]5CC[C@]43C)[C@@H]12		12.1	6.93	9.03	7.78	7.51	6.29	10.5	26.7	4.3		2830	2.1	2.65	2320	2.24	2.38	2770	2.84	1.85
COc1ccc(-c2nc(N3CCOCC3)c3sc(CN(C)c4ncc(C(=O)NO)cn4)cc3n2)cn1	1.53	0.171	0.0466	0.155	0.331	0.123	0.0799	0.0345	0.0332	1.13	< 10	31.3	< 0.01	< 0.0122	28.2	< 0.0106	0.02	< 10	< 0.01	0.0112
O=C(NC1CCCCC1)NS(=O)(=O)c1ccc(-n2nc3c(c2-c2ccc(Cl)cc2)Cc2ccccc2-3)cc1	4.36	> 100	39.8	39.2	23	> 100	44.2	21	> 100	54.9	1130	5070	18.4	5.03	6430	35.8	19.4	7930	49.8	6.15
COc1nc(N)nc2c1ncn2[C@@H]1O[C@H](CO)[C@@H](O)[C@@H]1O	> 100	> 100	> 100	> 100	> 100	> 100	> 100	> 100	> 100	> 100	2660	> 100000	> 100	> 100	> 100000	> 100	> 100	> 100000	> 100	> 100
CCn1c(-c2nonc2N)nc2cncc(C(=O)NCCNC)c21	> 25	> 25	> 25	> 6.59	> 25	> 25	> 25	> 25	> 25	> 25	> 19900	12100	3.04	0.36	> 25000	3.11	5.27	11200	16.7	0.454
COc1cc(/C=C2\C(=O)N(c3ccccc3)c3ccccc32)cc(OC)c1OC	7.78	21.2	19.9	> 100	26.1	31.5	30.7	20.7	> 100	29.3	1750	6670	6.66	28.2	4120	15	11.7	6320	5.02	9.69
COC1=CC(c2ccc[nH]2)=N/C1=C\c1[nH]c(C)c(C(C)=O)c1C	> 100	1.62	> 100	> 100		> 42.2	6.63	> 55.8	19.2	> 82.1	18.3	309	3.44	0.552		0.69	1.99	670	2.75	2.6
Clc1ccc(C2=NN[C@H](c3cn(-c4ccccc4)nc3-c3ccccc3)C2)cc1	45.3	18.6	37.5	15.9	24.9	5.76	16.3		18.8	25.4	8230	4880	4.91	3.46	5910	2.31	4.85		3.91	5.96
COc1ccc2c(c1)/C(=C\c1c(Cl)n(C)c3ccccc13)C(=O)N2	> 100	12.5	13.3	8.12	9.53	24	31.4	16.2	31.4	19.5	3530	2180	1.87	1.44	399	1.44	0.668	1600	3.02	2.19
N#CCCSC(=S)C1CCCC1=N (configuration not stated)		> 100	> 100	> 100	> 100	> 100	> 100	> 100	> 100	> 100										
CCC(c1ccc2cc(O)ccc2c1)C(C)(C)C(=O)O (configuration not stated)		> 100	> 100	> 100	> 100	> 100	> 100	> 100	> 100	> 100										
CCCC(=O)Nc1ccc2c(c1)CN1C(=O)c3ccccc3C1=N2		> 100	> 100	> 100	> 100	> 100	> 100	> 100	> 100	> 100										
COc1ccc(CCN2CCC(Nc3nc4ccccc4n3Cc3ccc(F)cc3)CC2)cc1	5.45	2.77	3.48		2.88	3.15	4.78	2.93	4.38	3.09	1870	1460	1.67		1450	1.72	2.29	1550	1.97	1.55
O=C1CC[C@H](c2ccc(O)c3c2C(=O)[C@@H]2O[C@@H]2C3=O)c2cccc(O)c21	5.76	3.43	9	97.2		11.6	26.9	4.16	3.81	12.4	1050	1790	2.98	3.78		3.1	13	1460	1.27	3.21
CCCCCCCCCCCCCCCCCC(=O)OCC(COC1OC(CS(=O)(=O)O)C(O)C(O)C1O)OC(=O)CCCCCCCCCCCCCCCCC (configuration not stated)	> 100	> 100	> 100	> 100	> 100	> 100		> 100	> 100	> 100										
O=C1NC(c2c(Cl)cccc2Cl)Nc2ccccc21 (configuration not stated)		> 100	> 100	74.1	> 100	> 100	> 100	> 100	> 100	> 100										
